Results: patent publication US20230391741A1, “AGAROFURAN COMPOUND, PREPARATION METHOD THEREFOR, AND APPLICATION THEREOF” (BEIJING CHY PHARMACEUTICAL TECHNOLOGY CO, LTD., priority 2021, published 2023)
Where “and” joins values, the source holds several entries; their conditions need not be identical. Equal entries are not always repeated. Where two headings read alike, the source gives them in different places.

Experiment: Plasma pharmacokinetics after intraperitoneal injection in mouse (UPLC-MS/MS)
Assay type: in vivo
Details: for concentration at 5 min / concentration at 0.167 h / concentration at 0.25 h / concentration at 0.5 h / concentration at 1 h / concentration at 2 h / concentration at 4 h / concentration at 8 h / half-life / MRT / AUC(0-inf) / Cmax / Tmax / AUC(0-t) / MRT inf / concentration at 6 h: male, ICR; for concentration at 5 min / concentration at 0.167 h / concentration at 0.25 h / concentration at 0.5 h / concentration at 1 h / concentration at 2 h / concentration at 4 h / concentration at 8 h / half-life / MRT / concentration at 6 h: plasma; for concentration at 5 min / concentration at 0.167 h / concentration at 0.25 h / concentration at 0.5 h / concentration at 1 h / concentration at 2 h / concentration at 4 h / concentration at 8 h / concentration at 6 h: ip; for MRT: read-out: mean residence time (MRT)(0-t); for AUC(0-inf) / Cmax / Tmax / AUC(0-t) / MRT inf / AUClast/D / AUC—% Extrap—obs / T1/2: mouse plasma, prototype drug; for AUC(0-t): read-out: AUClast; for MRT inf: read-out: MRTInf—obs
Experimental: Positive control drug 4-butyl-α-agarofuran preparation (BAF) and Compound 2 preparation were administered intraperitoneally at a dose of 10 mg/kg/10 ml (calculated according to the crude drug), and a suspension was prepared by ultrasonic grinding with double distilled water. Male ICR mice, with a weight of 21-24 g, were purchased from SPF (Beijing) Biotechnology Co., Ltd.
12 mice were randomly divided into 4 groups, there were 3 parallel cross blood sampling points in each group (5 points in groups 1 and 3, and 6 points in groups 2 and 4), it was administered according to the weight, and blood was collected from the orbital venous plexus at 5 min, 10 min, […], 30 min, 1 h, 2 h, 4 h, 6 h, 8 h, 12 h, and 24 h after administration. The bloods at each time point were collected into Eppendorf (EP) tubes anticoagulated with heparin, and placed on ice and centrifuged at 8000 r/min×5 min, to separate plasma for later use.
20 μl of mouse blank plasma was taken, 55 μl of acetonitrile containing an internal standard solution (200 ng/mL, BAF crude drug and Compound 2 crude drug are mutual internal standards, namely BAF was used as the internal standard of Compound 2, and Compound 2 was used as the internal standard of BAF, similarly hereinafter) is added, 5 μl of a methanol working solution of the compound BAF or Compound 2 with different concentrations was respectively added and mixed uniformly, so that its final plasma concentrations were 0.2, 0.5, 2, 5, 10, 25, 50, 100, 200, 500, 750, and 1000 ng/ml respectively, centrifugation was conducted twice at a high speed of 13000 r/min×5 min, and 5 μl of a supernatant was taken for UPLC-MS/MS analysis.
10 μL of plasma was taken, 30 μL of acetonitrile containing internal standard solution (100 ng/mL) was added to precipitate proteins, after the material was centrifuged twice at a high speed of 13000 r/min×5 min, 5 μl of a supernatant was taken for UPLC-MS/MS analysis.
Chromatographic column: Symmetry C8 (2.1 mm×50 mm, 3.5 μm), column temperature: 25° C., mobile phase: acetonitrile (0.1% formic acid): water (0.1% formic acid)=70:30 gradient elution, flow rate: 0.2 mL/min, Parallel Reaction Monitoring (PRM) detection, BAF: m/z 263.2→245.2; and Compound 2: m/z 317.2→299.2.

[1] = mouse, 10 mg/kg, IP 10 mg/kg, 5 min, read-out: Plasma concentration, Mean
[2] = mouse, 10 mg/kg, IP 10 mg/kg, 0.167 h, read-out: Plasma concentration, Mean
[3] = mouse, 10 mg/kg, IP 10 mg/kg, 0.167 h, read-out: Plasma concentration, individual mice 1-3
[4] = mouse, 10 mg/kg, IP 10 mg/kg, 0.25 h, read-out: Plasma concentration, Mean
[5] = mouse, 10 mg/kg, IP 10 mg/kg, 0.5 h, read-out: Plasma concentration, Mean
[6] = mouse, 10 mg/kg, IP 10 mg/kg, 0.5 h, read-out: Plasma concentration, individual mice 1-3
[7] = mouse, 10 mg/kg, IP 10 mg/kg, 1 h, read-out: Plasma concentration, Mean
[8] = mouse, 10 mg/kg, IP 10 mg/kg, 2 h, read-out: Plasma concentration, Mean
[9] = mouse, 10 mg/kg, IP 10 mg/kg, 2 h, read-out: Plasma concentration, individual mice 1-3
[10] = mouse, 10 mg/kg, IP 10 mg/kg, 4 h, read-out: Plasma concentration, Mean
[11] = mouse, 10 mg/kg, IP 10 mg/kg, 8 h, read-out: Plasma concentration, individual mice 1-3

CCCCC1=CCC[C@@]2(C)CC[C@@H]3C[C@]12OC3(C)C [BAF, 4-butyl-α-agarofuran, reference compound]
Plasma concentration, individual mice 1-3 (IP 10 mg/kg, 5 min, 10 mg/kg): 413 ng/mL and 295 ng/mL and 194 ng/mL
Plasma concentration, individual mice 1-3 (IP 10 mg/kg, 0.167 h, 10 mg/kg): 133 ng/mL and 204 ng/mL
Plasma concentration, individual mice 1-3 (IP 10 mg/kg, 0.25 h, 10 mg/kg): 364 ng/mL and 132 ng/mL and 91.8 ng/mL
Plasma concentration, individual mice 1-3 (IP 10 mg/kg, 0.5 h, 10 mg/kg): 45.2 ng/mL and 38.9 ng/mL
Plasma concentration, individual mice 1-3 (IP 10 mg/kg, 1 h, 10 mg/kg): 54.6 ng/mL and 22.2 ng/mL and 24.4 ng/mL
Plasma concentration, individual mice 1-3 (IP 10 mg/kg, 2 h, 10 mg/kg): 6.91 ng/mL and 6.54 ng/mL
Plasma concentration, individual mice 1-3 (IP 10 mg/kg, 4 h, 10 mg/kg): 11.3 ng/mL and 2.09 ng/mL and 2.90 ng/mL
Plasma concentration, individual mice 1-3 (IP 10 mg/kg, 6 h): BLOQ
Plasma concentration, individual mice 1-3 (IP 10 mg/kg, 8 h, 10 mg/kg): BLOQ
Plasma concentration, individual mice 1-3 (IP 10 mg/kg, 12 h): BLOQ
Plasma concentration, individual mice 1-3 (IP 10 mg/kg, 24 h): BLOQ
concentration at 5 min [1]: 301 ng/mL
concentration at 0.167 h [2]: 179 ng/mL
concentration at 0.167 h [3]: 201 ng/mL
concentration at 0.25 h [4]: 196 ng/mL
concentration at 0.5 h [5]: 42 ng/mL
concentration at 0.5 h [6]: 41.9 ng/mL
concentration at 1 h [7]: 33.7 ng/mL
concentration at 2 h [8]: 6.52 ng/mL
concentration at 2 h [9]: 6.1 ng/mL
concentration at 4 h [10]: 5.4 ng/mL
concentration at 8 h [11]: 4.03 ng/mL
half-life (mouse, IP 10 mg/kg): 1.29 h
MRT (mouse, IP 10 mg/kg): 1.05 h
AUC(0-inf) (IP 10 mg/kg): 139 ng·h/mL
Cmax (IP 10 mg/kg): 301 ng/mL
Tmax (IP 10 mg/kg): 5 min
AUC(0-t) (IP 10 mg/kg): 129 ng·h/mL
MRT inf (IP 10 mg/kg): 1.05 h
AUClast/D (IP 10 mg/kg): 12.9 kg·ng·h/mL/mg
AUC—% Extrap—obs (IP 10 mg/kg): 7.24%
T1/2 (IP 10 mg/kg): 1.29 h

CC1(C)O[C@]23C[C@H]1CC[C@]2(C)CCC=C3CCCC(F)(F)F [Compound 2, (1R,6S,9R)6,10,10-trimethyl-2-(4,4,4-trifluorobutyl)-11-oxatricyclo [7.2.1.0^1,6]dodec-2-ene]
Plasma concentration, individual mice 1-3 (IP 10 mg/kg, 5 min, 10 mg/kg): 407 ng/mL and 585 ng/mL
Plasma concentration, individual mice 1-3 (IP 10 mg/kg, 0.167 h, 10 mg/kg): 198 ng/mL and 214 ng/mL
Plasma concentration, individual mice 1-3 (IP 10 mg/kg, 0.25 h, 10 mg/kg): 201 ng/mL and 196 ng/mL
Plasma concentration, individual mice 1-3 (IP 10 mg/kg, 0.5 h, 10 mg/kg): 59.8 ng/mL and 67.5 ng/mL
Plasma concentration, individual mice 1-3 (IP 10 mg/kg, 1 h, 10 mg/kg): 41.2 ng/mL and 32.1 ng/mL
Plasma concentration, individual mice 1-3 (IP 10 mg/kg, 2 h, 10 mg/kg): 17.9 ng/mL and 22.3 ng/mL
Plasma concentration, individual mice 1-3 (IP 10 mg/kg, 4 h, 10 mg/kg): 8.03 ng/mL and 6.56 ng/mL
Plasma concentration, individual mice 1-3 (IP 10 mg/kg, 6 h, 10 mg/kg): 3.20 ng/mL and 3.79 ng/mL
Plasma concentration, individual mice 1-3 (IP 10 mg/kg, 8 h, 10 mg/kg): BLOQ
Plasma concentration, individual mice 1-3 (IP 10 mg/kg, 12 h): BLOQ
Plasma concentration, individual mice 1-3 (IP 10 mg/kg, 24 h): BLOQ
concentration at 5 min [1]: 450 ng/mL
concentration at 5 min (mouse, 10 mg/kg, IP 10 mg/kg, 5 min, read-out: Plasma concentration, individual mice 1-3): 359 ng/mL
concentration at 0.167 h [2]: 251 ng/mL
concentration at 0.167 h [3]: 341 ng/mL
concentration at 0.25 h [4]: 195 ng/mL
concentration at 0.25 h (mouse, 10 mg/kg, IP 10 mg/kg, 0.25 h, read-out: Plasma concentration, individual mice 1-3): 188 ng/mL
concentration at 0.5 h [5]: 69.5 ng/mL
concentration at 0.5 h [6]: 81.1 ng/mL
concentration at 1 h [7]: 32.5 ng/mL
concentration at 1 h (mouse, 10 mg/kg, IP 10 mg/kg, 1 h, read-out: Plasma concentration, individual mice 1-3): 24.3 ng/mL
concentration at 2 h [8]: 20 ng/mL
concentration at 2 h [9]: 19.7 ng/mL
concentration at 4 h [10]: 7.45 ng/mL
concentration at 4 h (mouse, 10 mg/kg, IP 10 mg/kg, 4 h, read-out: Plasma concentration, individual mice 1-3): 7.77 ng/mL
concentration at 6 h (mouse, 10 mg/kg, IP 10 mg/kg, 6 h, read-out: Plasma concentration, Mean): 3.56 ng/mL
concentration at 6 h (mouse, 10 mg/kg, IP 10 mg/kg, 6 h, read-out: Plasma concentration, individual mice 1-3): 3.69 ng/mL
concentration at 8 h [11]: 3.17 ng/mL
half-life (mouse, IP 10 mg/kg): 1.61 h
MRT (mouse, IP 10 mg/kg): 1.32 h
AUC(0-inf) (IP 10 mg/kg): 198 ng·h/mL
Cmax (IP 10 mg/kg): 450 ng/mL
Tmax (IP 10 mg/kg): 5 min
AUC(0-t) (IP 10 mg/kg): 190 ng·h/mL
MRT inf (IP 10 mg/kg): 1.32 h
AUClast/D (IP 10 mg/kg): 19 kg·ng·h/mL/mg
AUC—% Extrap—obs (IP 10 mg/kg): 4.16%
T1/2 (IP 10 mg/kg): 1.61 h
Pharmacokinetic properties compared with BAF (mouse, IP): better pharmacokinetic properties
AUC(0-t) as percentage of BAF (mouse, IP 10 mg/kg): 142%
Cmax as percentage of BAF (mouse, IP 10 mg/kg): 150%
